In patent US10669285B2, “Condensed [1,4] diazepine compounds as autotaxin (ATX) and lysophosphatidic acid (LPA) production inhibitors” (Hoffmann-La Roche Inc., priority 2014, dated 2020) one finds IC50 data, which are given here for 21 molecules.

Molecules are shown by their SMILES.

What is called IC50 is the concentration needed to halve the response being measured. Lower therefore signals higher potency.

This test deals with ATX (human His-tagged) (Homo sapiens (Human), UniProt Q13822). The test is described as follows: Human ATX enzyme inhibition assay (fluorescence quenching, MR121 substrate). In kind it is biochemical. The conditions noted are these: inhibitory activity against ATX; 30 nM ATX, 1 μM MR121 substrate, 30° C. The method, then: Human ATX Enzyme Inhibition Assay
ATX inhibition was measured by a fluorescence quenching assay using a specifically labeled substrate analogue (MR121 substrate). To obtain this MR121 substrate, BOC and TBS protected 6-amino-hexanoic acid (R)-3-({2-[3-(2-{2-[2-(2-amino-ethoxy)-ethoxy]-ethoxy}-ethoxy)-propionylamino]-ethoxy}-hydroxy-phosphoryloxy)-2-hydroxy-propyl ester (Ferguson et al., Org Lett 2006, 8 (10), 2023) was labeled with MR121 fluorophore (CAS 185308-24-1, 1-(3-carboxypropyl)-11-ethyl-1,2,3,4,8,9,10,11-octahydro-dipyrido[3,2-b:2′,3′-i]phenoxazin-13-ium) on the free amine of the ethanolamine side and then, after deprotection, subsequently with tryptophan on the side of the aminohexanoic acid.
Assay working solutions were made as follows:
Assay buffer (50 mM Tris-HCl, 140 mM NaCl, 5 mM KCl, 1 mM CaCl2, 1 mM MgCl2, 0.01% Triton-X-100, pH 8.0;
ATX solution: ATX (human His-tagged) stock solution (1.08 mg/mL in 20 mM bicine, pH 8.5, 0.15 M NaCl, 10% glycerol, 0.3% CHAPS, 0.02% NaN3), diluted to 1.4-2.5× final concentration in assay buffer;
MR121 substrate solution: MR121 substrate stock solution (800 μM MR121 substrate in DMSO), diluted to 2-5× final concentration in assay buffer.
Test compounds (10 mM stock in DMSO, 8 μL) were obtained in 384 well sample plates (Corning Costar #3655) and diluted with 8 μL DMSO. Row-wise serial dilutions were made by transferring 8 μL cpd solution to the next row up to […]. The compound and control solutions were mixed five times and 2 μL were transferred to 384 well assay plates (Corning Costar #3702). Then, 15 μL of 41.7 nM ATX solution was added (30 nM final concentration), mixed five times and then incubated for 15 minutes at 30° C. 10 μL of MR121 substrate solution was added (1 μM final concentration), mixed 30 times and then incubated for 15 minutes at 30° C. Fluorescence was then measured every 2 minutes for 1 hour (Perkin Elmer plate: vision multimode reader); light intensity: 2.5%; exp. time: 1.4 sec, Filter: Fluo_630/690 nm) and IC50 values were calculated from these readouts.
As for `O=C1N[C@@H]2CCN(C(=O)c3nc4n(n3)CCN(C(=O)OCc3ccc(OC(F)(F)F)c(F)c3)CC4)C[C@H]2O1` [Example 43, 3-fluoro-4-(trifluoromethoxy)benzyl 2-((3aR,7aR)-2-oxooctahydrooxazolo[5,4-c]pyridine-5-carbonyl)-8,9-dihydro-5H-[1,2,4]triazolo[1,5-d][1,4]diazepine-7(6H)-carboxylate], the IC50 came out at 0.056 µM.
`N#Cc1ccc(COC(=O)N2CCc3cc(C(=O)N4CCc5[nH]nnc5C4)nn3CC2)c(F)c1` [Example 8, 4-Cyano-2-fluorobenzyl 2-(4,5,6,7-tetrahydro-1H-[1,2,3]triazolo[4,5-c]pyridine-5-carbonyl)-7,8-dihydro-4H-pyrazolo[1,5-d][1,4]diazepine-6(5H)-carboxylate] returned a concentration for half-maximal inhibition (IC50) of 0.06 µM.
`N#Cc1ccc(COC(=O)N2CCc3cc(C(=O)N4CCc5[nH]nnc5C4)nn3CC2)cc1F` [Example 7, 4-Cyano-3-fluorobenzyl 2-(4,5,6,7-tetrahydro-1H-[1,2,3]triazolo[4,5-c]pyridine-5-carbonyl)-7,8-dihydro-4H-pyrazolo[1,5-d][1,4]diazepine-6(5H)-carboxylate]: the IC50 stood at 0.07 µM.
`CC(C)c1cc(C#N)ccc1COC(=O)N1CCc2cc(C(=O)N3CCc4[nH]nnc4C3)nn2CC1` [Example 9, (4-Cyano-2-propan-2-ylphenyl)methyl 2-(1,4,6,7-tetrahydrotriazolo[4,5-c]pyridine-5-carbonyl)-4,5,7,8-tetrahydropyrazolo[1,5-d][1,4]diazepine-6-carboxylate] had a 50% inhibitory concentration (IC50) of 0.006 µM.
As for `O=C(CCc1ccc(OC(F)(F)F)c(Cl)c1)N1CCc2nc(C(=O)N3CCc4[nH]nnc4C3)nn2CC1` [Example 23, 3-[3-chloro-4-(trifluoromethoxy)phenyl]-1-[2-(1,4,6,7-tetrahydrotriazolo[4,5-c]pyridine-5-carbonyl)-5,6,8,9-tetrahydro-[1,2,4]triazolo[1,5-d][1,4]diazepin-7-yl]propan-1-one], half-maximal inhibition (IC50) was put at 0.05 µM.
`O=C(OCc1ccc(OC(F)(F)F)c(Cl)c1)N1CCc2nc(C(=O)N3CCc4[nH]nnc4C3)nn2CC1` [Example 41, [3-chloro-4-(trifluoromethoxy)phenyl]methyl 2-(1,4,6,7-tetrahydrotriazolo[4,5-c]pyridine-5-carbonyl)-5,6,8,9-tetrahydro-[1,2,4]triazolo[1,5-d][1,4]diazepine-7-carboxylate] registered a half-inhibitory concentration (IC50) of 0.006 µM.
With `O=C(CCc1ccc(OC(F)(F)F)c(Cl)c1)N1CCc2cc(C(=O)N3CCc4[nH]nnc4C3)nn2CC1` [Example 22, 3-[3-chloro-4-(trifluoromethoxy)phenyl]-1-[2-(1,4,6,7-tetrahydrotriazolo[4,5-c]pyridine-5-carbonyl)-4,5,7,8-tetrahydropyrazolo[1,5-d][1,4]diazepin-6-yl]propan-1-one], it took 0.018 µM to reach half-maximal inhibition (IC50).
In the case of `O=C(OCc1ccc(OC(F)(F)F)cc1F)N1CCc2cc(C(=O)N3CCc4[nH]nnc4C3)nn2CC1` [Example 4, 2-Fluoro-4-(trifluoromethoxy)benzyl 2-(4,5,6,7-tetrahydro-1H-[1,2,3]triazolo[4,5-c]pyridine-5-carbonyl)-7,8-dihydro-4H-pyrazolo[1,5-d][1,4]diazepine-6(5H)-carboxylate], the concentration for half-maximal inhibition (IC50) came to 0.007 µM.
Regarding `COc1ccc(COC(=O)N2CCc3cc(C(=O)N4CCc5[nH]nnc5C4)nn3CC2)cc1F` [Example 32, 3-fluoro-4-methoxybenzyl 2-(4,5,6,7-tetrahydro-1H-[1,2,3]triazolo[4,5-c]pyridine-5-carbonyl)-7,8-dihydro-4H-pyrazolo[1,5-d][1,4]diazepine-6(5H)-carboxylate], the concentration for half-maximal inhibition (IC50) is 0.03 µM.
As to `O=C(OCc1ccc(OC(F)(F)F)cc1)N1CCc2nc(C(=O)N3CCc4[nH]nnc4C3)nn2CC1` [Example 11, [4-(Trifluoromethoxy)phenyl]methyl 2-(1,4,6,7-tetrahydrotriazolo[4,5-c]pyridine-5-carbonyl)-5,6,8,9-tetrahydro-[1,2,4]triazolo[1,5-d][1,4]diazepine-7-carboxylate], the IC50 worked out at 0.015 µM.
For `N#Cc1ccc(OCC(=O)N2CCc3cc(C(=O)N4CCc5[nH]nnc5C4)nn3CC2)c(C2CC2)c1` [Example 15, 3-Cyclopropyl-4-(2-oxo-2-(2-(4,5,6,7-tetrahydro-1H-[1,2,3]triazolo[4,5-c]pyridine-5-carbonyl)-7,8-dihydro-4H-pyrazolo[1,5-d][1,4]diazepin-6(5H)-yl)ethoxy)benzonitrile], the IC50 was 0.011 µM.
Turning to `O=C(CCc1ccc(OC(F)(F)F)c(F)c1)N1CCc2cc(C(=O)N3CCc4[nH]nnc4C3)nn2CC1` [Example 18, 3-[3-fluoro-4-(trifluoromethoxy)phenyl]-1-[2-(1,4,6,7-tetrahydrotriazolo[4,5-c]pyridine-5-carbonyl)-4,5,7,8-tetrahydropyrazolo[1,5-d][1,4]diazepin-6-yl]propan-1-one], the half-maximal inhibitory concentration (IC50) was 0.013 µM.
`O=C(OCc1ccc(OCC(F)(F)F)cc1)N1CCc2cc(C(=O)N3CCc4[nH]nnc4C3)nn2CC1` [Example 40, 4-(2,2,2-trifluoroethoxy)benzyl 2-(4,5,6,7-tetrahydro-1H-[1,2,3]triazolo[4,5-c]pyridine-5-carbonyl)-7,8-dihydro-4H-pyrazolo[1,5-d][1,4]diazepine-6(5H)-carboxylate] showed a half-inhibitory concentration (IC50) of 0.017 µM.
`O=C(CCc1ccc(OC(F)(F)F)cc1)N1CCc2cc(C(=O)N3CCc4[nH]nnc4C3)nn2CC1` [Example 14, 1-[2-(1,4,6,7-tetrahydrotriazolo[4,5-c]pyridine-5-carbonyl)-4,5,7,8-tetrahydropyrazolo[1,5-d][1,4]diazepin-6-yl]-3-[4-(trifluoromethoxy)phenyl]propan-1-one] displayed an IC50 of 0.014 µM.
In the case of `O=C(OCc1ccc(F)c(F)c1)N1CCc2cc(C(=O)N3CCc4[nH]nnc4C3)nn2CC1` [Example 30, (3,4-difluorophenyl)methyl 2-(1,4,6,7-tetrahydrotriazolo[4,5-c]pyridine-5-carbonyl)-4,5,7,8-tetrahydropyrazolo[1,5-d][1,4]diazepine-6-carboxylate] it was 0.041 µM; in that of `O=C(/C=C/c1ccc(OC(F)F)c(F)c1)N1CCc2cc(C(=O)N3CCc4[nH]nnc4C3)nn2CC1` [Example 25, (E)-3-[4-(difluoromethoxy)-3-fluorophenyl]-1-[2-(1,4,6,7-tetrahydrotriazolo[4,5-c]pyridine-5-carbonyl)-4,5,7,8-tetrahydropyrazolo[1,5-d][1,4]diazepin-6-yl]prop-2-en-1-one], 0.007 µM.
On to `COc1ccc(COC(=O)N2CCc3cc(C(=O)N4CCc5[nH]nnc5C4)nn3CC2)cc1` [Example 27, 4-methoxybenzyl 2-(4,5,6,7-tetrahydro-1H-[1,2,3]triazolo[4,5-c]pyridine-5-carbonyl)-7,8-dihydro-4H-pyrazolo[1,5-d][1,4]diazepine-6(5H)-carboxylate], for which the 50% inhibitory concentration (IC50) came out at 0.052 µM.
With `COc1ccc(CCC(=O)N2CCc3cc(C(=O)N4CCc5[nH]nnc5C4)nn3CC2)cc1` [Example 19, 3-(4-methoxyphenyl)-1-[2-(1,4,6,7-tetrahydrotriazolo[4,5-c]pyridine-5-carbonyl)-4,5,7,8-tetrahydropyrazolo[1,5-d][1,4]diazepin-6-yl]propan-1-one], inhibition was half-maximal at 0.151 µM (IC50).
Turning to `O=C(CCc1ccc(OC(F)F)c(F)c1)N1CCc2cc(C(=O)N3CCc4[nH]nnc4C3)nn2CC1` [Example 26, 3-[4-(difluoromethoxy)-3-fluorophenyl]-1-[2-(1,4,6,7-tetrahydrotriazolo[4,5-c]pyridine-5-carbonyl)-4,5,7,8-tetrahydropyrazolo[1,5-d][1,4]diazepin-6-yl]propan-1-one], the midpoint of inhibition, the IC50, lay at 0.016 µM.
`O=C(OCc1ccc(OC(F)F)c(F)c1)N1CCc2cc(C(=O)N3CCc4[nH]nnc4C3)nn2CC1` [Example 31, 4-(difluoromethoxy)-3-fluorobenzyl 2-(4,5,6,7-tetrahydro-1H-[1,2,3]triazolo[4,5-c]pyridine-5-carbonyl)-7,8-dihydro-4H-pyrazolo[1,5-d][1,4]diazepine-6(5H)-carboxylate] had a 50% inhibitory concentration (IC50) of 0.022 µM.
`O=C(c1cc(OCC2CCOCC2)nc(C2CC2)c1)N1CCc2cc(C(=O)N3CCc4[nH]nnc4C3)nn2CC1` [Example 24, (6-(2-cyclopropyl-6-((tetrahydro-2H-pyran-4-yl)methoxy)isonicotinoyl)-5,6,7,8-tetrahydro-4H-pyrazolo[1,5-d][1,4]diazepin-2-yl)(6,7-dihydro-1H-[1,2,3]triazolo[4,5-c]pyridin-5(4H)-yl)methanone] registered an IC50 of 0.009 µM.
